What was measured:
[1] = system: LPS-mediated TNF and IL6 production in whole blood; assay: LPS-stimulated cytokine production in whole blood of healthy control subjects (Milenia whole blood assay); assay type: cell-based, human; details: LPS 50 pg/ml
Experimental: We have tested the ability of ursodeoxycholic acid (UDCA, FALK Pharma GmbH) to inhibit LPS-mediated TNF production in whole blood of healthy control subjects. Methods: Heparinized whole blood was diluted 1:10 with medium+/-LPS (50 pg/ml), +/-BPI (1 μg/ml), and +/-UDCA ([…]) according to the manufactorer's recommendation ([…] whole blood assay; DPC Biermann, Bad Nauheim, Germany) and incubated for 4 hours at 37° C. In the supernatant, we assessed concentrations of TNF and IL-6 using the semiautomated Immulite system (DPC-Biermann, Bad Nauheim, Germany).

[2] = system: LPS-mediated TNF and IL6 production in whole blood; assay: LPS-stimulated cytokine production in whole blood of patients with cachexia due to liver cirrhosis (in vitro application); assay type: cell-based, human; details: 1 mg/ml UDCA, LPS 50 pg/ml, 4 hours
Experimental: We have tested the ability of ursodeoxycholic acid (UDCA, FALK Pharma GmbH) and BPi to inhibit LPS-mediated TNF production in whole blood of patients with cachexia.
(§1) We studied 4 patients with cachexia due to liver cirrhosis. The patients had all weight loss >7.5% compared to their previous normal weight. […] All patients were studied twice on 2 subsequent days (day “−1” and day “0”), see FIG. 9 to 12.
(§2) Methods: Heparinized whole blood was diluted 1:10 with medium+/−LPS (50 pg/ml), +/−BPI (1 μg/ml), and +/−UDCA (1 μg/ml-1 mg/ml) according to the manufactorer's recommendation (Milenia whole blood assay; DPC Biermann, Bad Nauheim, Germany) and incubated for 4 hours at 37° C. In the supernatant, we assessed concentrations of TNF and IL-6 using the semiautomated Immulite system (DPC-Biermann, Bad Nauheim, Germany).

[3] = system: monocyte generated cytokine production in response to LPS; details: in the concentrations used; Greve et al. Hepatology 1989; cited from earlier work
[4] = system: LPS-induced TNF synthesis in monocytes; assay: LPS-induced TNF synthesis in monocytes with pre-incubated serum; assay type: cell-based, human
Experimental: LPS-induced cytokine synthesis can be inhibited by serum lipoproteins. However, this is not easily seen experimentally, as it needs a certain pre-incubation procedure (18 hours at 37° C.) that we developed in our laboratory.
Methodology for example 4, 5, 7, and 8: TNF assessment: ELISA established in the laboratory of Dr. Schumann using 2 monoclonal antibodies (Pharmingen Inc., USA). Recombinant LBP: produced in the lab of Dr. Schumann. Lipoproteins: isolated from sera of healthy young volunteers, isolated by density gradient centrifugation, monocytes isolated also from blood of healthy young volunteers
Again, serum lacking lipoproteins was unable to block LPS-induced TNF synthesis. The ability to block LPS-induced TNF synthesis could be restored by addition of isolated lipoproteins. […] Methodology as in example 4

LPS effects [5] = details: high concentrations of LBP, as seen during the acute phase response; cited from earlier work
LPS effects [6] = details: high concentrations of LBP; cited from earlier work
[7] = system: spontaneous production of TNF and IL6 of whole blood; assay: Spontaneous production of TNF and IL6 in whole blood of patients with cachexia due to liver cirrhosis; assay type: cell-based, human; details: BPi 1 μg/ml, 8 experiments, p<0.05
Experimental: as §1, §2

[8] = 100 μg/ml UDCA, whole blood of healthy control subjects, 4 hours
[9] = 1 mg/ml UDCA, whole blood of healthy control subjects diluted 1:10, 4 hours at 37° C.

## C[C@H](CCC(=O)O)[C@H]1CC[C@H]2[C@@H]3[C@@H](O)C[C@@H]4C[C@H](O)CC[C@]4(C)[C@H]3CC[C@]12C [UDCA, ursodeoxycholic acid]
[1]; [8]
  reduction of LPS-stimulated IL6 production: 43%
  reduction of LPS-stimulated TNF production: 68%
[1]; [9]
  reduction of LPS-stimulated IL6 production: > 95%
  reduction of LPS-stimulated TNF production: > 95%
[2]; whole blood of 4 patients with cachexia due to liver cirrhosis
  reduction of LPS-stimulated TNF production (on average): > 99%
[2]; whole blood of patients with cachexia due to liver cirrhosis
  reduction of LPS-stimulated IL6 production (on average): 97%

## C[C@H](CCC(=O)O)[C@H]1CC[C@H]2[C@@H]3[C@H](O)C[C@@H]4C[C@H](O)CC[C@]4(C)[C@H]3CC[C@]12C [chenodeoxycholic acid]
[3]
  effectiveness on monocyte generated cytokine production in response to LPS: less effective

B1: LBP: serum protein which binds to LPS; recombinant LBP produced in the lab of Dr. Schumann (protein, UniProt P18428 26-481, looked up)
Lipopolysaccharide-binding …: ANPGLVARITDKGLQYAAQEGLLALQSELLRITLPDFTGDLRIPHVGRGRYEFHSLNIHSCELLHSALRPVPGQGLSLSISDSSIRVQGRWKVRKSFFKLQGSFDVSVKGISISVNLLLGSESSGRPTVTASSCSSDIADVEVDMSGDLGWLLNLFHNQIESKFQKVLESRICEMIQKSVSSDLQPYLQTLPVTTEIDSFADIDYSLVEAPRATAQMLEVMFKGEIFHRNHRSPVTLLAAVMSLPEEHNKMVYFAISDYVFNTASLVYHEEGYLNFSITDDMIPPDSNIRLTTKSFRPFVPRLARLYPNMNLELQGSVPSAPLLNFSPGNLSVDPYMEIDAFVLLPSSSKEPVFRLSVATNVSATLTFNTSKITGFLKPGKVKVELKESKVGLFNAELLEALLNYYILNTFYPKFNDKLAEGFPLPLLKRVQLYDLGLQIHKDFLFLGANVQYMRV
[4]; high concentrations added to normal serum (containing lipoproteins)
  LPS-stimulated TNF production in a monocyte stimulation system: reduces LPS-stimulated TNF production
[4]; titrated into lipoprotein-deficient serum, high levels of LBP
  inhibition of LPS activity (LPS-induced TNF production): inhibit LPS activity
LPS effects [5]
  blocking of LPS effects in vitro: completely block LPS effects
LPS effects [6]
  blocking of LPS effects in a murine sepsis model: completely block LPS effects

B2: BPi: protein found in human white blood cells that binds to and neutralises endotoxin (protein, UniProt P17213 32-487, looked up)
Bactericidal …: VNPGVVVRISQKGLDYASQQGTAALQKELKRIKIPDYSDSFKIKHLGKGHYSFYSMDIREFQLPSSQISMVPNVGLKFSISNANIKISGKWKAQKRFLKMSGNFDLSIEGMSISADLKLGSNPTSGKPTITCSSCSSHINSVHVHISKSKVGWLIQLFHKKIESALRNKMNSQVCEKVTNSVSSELQPYFQTLPVMTKIDSVAGINYGLVAPPATTAETLDVQMKGEFYSENHHNPPPFAPPVMEFPAAHDRMVYLGLSDYFFNTAGLVYQEAGVLKMTLRDDMIPKESKFRLTTKFFGTFLPEVAKKFPNMKIQIHVSASTPPHLSVQPTGLTFYPAVDVQAFAVLPNSSLASLFLIGMHTTGSMEVSAESNRLVGELKLDRLLLELKHSNIGPFPVELLQDIMNYIVPILVLPRVNEKLQKGFPLPTPARVQLYNVVLQPHQNFLLFGADVVYK
[7]
  spontaneous production of IL6 of whole blood: reduced significantly
  spontaneous production of TNF of whole blood: reduced significantly

Source: patent US20090197851A1, “THERAPY AND USE OF COMPOUNDS IN THERAPY” (MAX-DELBRUCK-CENTRUM FUR MOLEKULARE MEDIZIN, priority 1999, published 2009)
